The text below walks through data of patent publication US20210188813A1, “EZH2 INHIBITOR AND PHARMACEUTICALLY ACCEPTABLE SALTS AND POLYMORPHIC SUBSTANCES THEREOF, AND APPLICATION OF EZH2 INHIBITOR” (SHANGHAI HAIYAN PHARMACEUTICAL TECHNOLOGY CO., LTD., priority 2018, published 2021).

One experiment concerns the target T1, PRC2 (EZH2-Y641F) (Homo sapiens, UniProt Q15910, Y641F).
T1 construct: purchased Active motif
Kind of experiment: In vitro methyltransferase assay. The format is biochemical. The protocol:
Recombinant PRC2 (EZH2-Y641F) was purchased from Active motif, S-adenosyl-methionin chloride (SAM) and Poly-L-lysine (PLL) were purchased from Sigma-Aldrich, H3(1-50)K27me1 peptide was purchased from Cisbio. LANCEUltra (Perkinelmer) system was used for detection. For the enzyme activity test, tested compounds are 1:3 diluted for 8-points, and added into each well, then 100 ng enzyme is added. And then the buffer [20 mM Tris pH8.5, 2 mM MgCl2, 0.01% Tween-20, 1 mM TCEP] containing […]/250 nM H3 (1-50)K27me1 premixtures are added. After 3 hours enzyme reaction at RT, the premixed detection buffer (PLL, Europium antibody and Ulight) is added, and react for 1 h at RT, then read fluorescence on Tecan infinite pro. IC50s are counted by XLfit using a four-parameter model.

A further experiment has as its system Pfeiffer cells. Kind of experiment: Cell proliferation assay, Pfeiffer. The format is cell-based. Particulars: Homo sapiens, Pfeiffer, 144 h; 6 days' growth, cell counting kit-8. The protocol: Cell lines Pfeiffer (CRL-2632), suDHL-6 (CRL-2959) and suDHL-10 (CRL-2963) were obtained from ATCC. All cell lines were cultured in RPMI-1640 medium (Gibco) plus 10% FBS (Gibco). Cells are harvested by centrifuge and densities are determined using a CounterStar cell counter. Appropriate number of cells are plated in a96-well culture plate and pre-incubate overnight. Tested compounds are 1:3 diluted for 8-points and added into each well. After 6 days' growth, cell counting kit-8 (Dojindo) is used to detect cell viability and read on Tecan infinite pro. IC50s are counted by XLfit using a four-parameter model.

Each structure is given as a SMILES string.

T1 sequence (Q15910 whole entry Y641F): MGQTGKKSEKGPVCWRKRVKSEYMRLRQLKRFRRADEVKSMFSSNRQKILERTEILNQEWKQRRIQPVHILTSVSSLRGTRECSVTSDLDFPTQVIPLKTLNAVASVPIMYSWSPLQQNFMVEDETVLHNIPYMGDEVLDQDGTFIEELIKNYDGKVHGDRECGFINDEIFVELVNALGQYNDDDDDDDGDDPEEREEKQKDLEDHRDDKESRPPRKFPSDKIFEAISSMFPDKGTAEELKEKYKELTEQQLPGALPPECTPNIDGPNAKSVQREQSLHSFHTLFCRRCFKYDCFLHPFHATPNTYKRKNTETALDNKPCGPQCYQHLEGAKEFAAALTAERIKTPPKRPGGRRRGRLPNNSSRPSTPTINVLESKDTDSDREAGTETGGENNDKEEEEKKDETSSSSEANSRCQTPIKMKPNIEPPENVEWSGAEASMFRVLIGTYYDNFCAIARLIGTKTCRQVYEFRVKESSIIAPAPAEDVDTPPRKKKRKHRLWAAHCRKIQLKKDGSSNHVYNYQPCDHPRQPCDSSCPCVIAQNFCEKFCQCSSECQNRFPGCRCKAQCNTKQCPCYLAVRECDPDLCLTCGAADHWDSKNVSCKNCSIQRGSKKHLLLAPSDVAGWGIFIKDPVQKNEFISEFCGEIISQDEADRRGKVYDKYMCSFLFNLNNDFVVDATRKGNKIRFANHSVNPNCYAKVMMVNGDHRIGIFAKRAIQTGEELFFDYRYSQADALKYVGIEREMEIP
T1 sequence (O75530 whole entry partner): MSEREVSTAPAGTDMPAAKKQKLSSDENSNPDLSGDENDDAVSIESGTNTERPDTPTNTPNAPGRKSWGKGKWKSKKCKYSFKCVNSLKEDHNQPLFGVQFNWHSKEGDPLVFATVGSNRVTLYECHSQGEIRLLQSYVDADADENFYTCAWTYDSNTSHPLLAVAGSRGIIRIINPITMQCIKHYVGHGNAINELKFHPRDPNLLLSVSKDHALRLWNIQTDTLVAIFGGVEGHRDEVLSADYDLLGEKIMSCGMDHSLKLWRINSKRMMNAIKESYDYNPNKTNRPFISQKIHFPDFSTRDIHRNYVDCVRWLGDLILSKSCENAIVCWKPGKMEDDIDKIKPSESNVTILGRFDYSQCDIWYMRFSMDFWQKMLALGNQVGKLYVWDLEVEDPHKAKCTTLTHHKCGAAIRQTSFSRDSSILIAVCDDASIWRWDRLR
T1 sequence (Q15022 whole entry partner): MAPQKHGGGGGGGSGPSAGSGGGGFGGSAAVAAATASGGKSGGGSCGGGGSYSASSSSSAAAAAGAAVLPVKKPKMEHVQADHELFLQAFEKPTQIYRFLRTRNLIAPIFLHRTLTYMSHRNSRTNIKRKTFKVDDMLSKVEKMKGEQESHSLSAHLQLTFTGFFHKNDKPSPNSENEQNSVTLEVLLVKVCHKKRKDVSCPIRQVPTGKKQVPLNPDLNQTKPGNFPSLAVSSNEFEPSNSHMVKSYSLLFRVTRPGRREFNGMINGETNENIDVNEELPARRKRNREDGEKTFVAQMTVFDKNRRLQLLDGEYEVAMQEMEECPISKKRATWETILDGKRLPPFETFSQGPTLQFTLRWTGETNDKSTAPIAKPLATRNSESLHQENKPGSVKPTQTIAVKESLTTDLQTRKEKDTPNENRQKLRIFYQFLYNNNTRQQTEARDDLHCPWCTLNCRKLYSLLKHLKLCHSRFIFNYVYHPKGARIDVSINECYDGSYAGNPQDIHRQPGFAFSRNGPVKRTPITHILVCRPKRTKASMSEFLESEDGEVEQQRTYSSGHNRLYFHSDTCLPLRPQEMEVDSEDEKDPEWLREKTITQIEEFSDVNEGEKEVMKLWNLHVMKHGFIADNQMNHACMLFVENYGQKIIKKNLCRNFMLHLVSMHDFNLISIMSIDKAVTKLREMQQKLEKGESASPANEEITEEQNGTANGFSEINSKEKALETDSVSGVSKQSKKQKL
T1 sequence (Q09028 whole entry partner): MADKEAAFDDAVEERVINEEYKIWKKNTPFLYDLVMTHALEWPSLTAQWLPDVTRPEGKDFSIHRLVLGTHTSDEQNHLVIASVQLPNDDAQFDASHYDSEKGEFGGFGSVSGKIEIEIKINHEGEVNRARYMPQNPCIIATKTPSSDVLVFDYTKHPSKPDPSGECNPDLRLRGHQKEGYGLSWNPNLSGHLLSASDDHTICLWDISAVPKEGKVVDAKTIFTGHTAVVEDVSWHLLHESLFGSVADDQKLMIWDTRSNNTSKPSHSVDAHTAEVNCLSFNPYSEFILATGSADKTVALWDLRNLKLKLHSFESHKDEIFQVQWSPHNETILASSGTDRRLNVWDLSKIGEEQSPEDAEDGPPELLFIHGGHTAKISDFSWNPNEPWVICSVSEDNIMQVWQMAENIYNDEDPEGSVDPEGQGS
T1 sequence (Q6ZN18 whole entry partner): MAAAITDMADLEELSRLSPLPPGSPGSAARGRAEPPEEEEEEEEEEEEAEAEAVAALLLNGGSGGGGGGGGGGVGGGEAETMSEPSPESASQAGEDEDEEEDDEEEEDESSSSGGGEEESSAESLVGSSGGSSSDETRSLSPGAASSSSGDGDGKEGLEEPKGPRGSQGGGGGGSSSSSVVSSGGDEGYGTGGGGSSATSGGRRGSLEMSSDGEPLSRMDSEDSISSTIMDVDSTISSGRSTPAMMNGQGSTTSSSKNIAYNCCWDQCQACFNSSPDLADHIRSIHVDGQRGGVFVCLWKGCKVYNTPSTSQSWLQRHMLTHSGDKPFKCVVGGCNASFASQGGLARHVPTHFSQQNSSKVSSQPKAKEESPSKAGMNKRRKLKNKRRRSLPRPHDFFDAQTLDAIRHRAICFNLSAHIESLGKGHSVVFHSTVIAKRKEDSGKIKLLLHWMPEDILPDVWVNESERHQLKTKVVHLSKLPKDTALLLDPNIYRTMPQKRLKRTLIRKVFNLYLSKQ

As a reminder, the IC50 is the concentration that gives 50% inhibition. Turning to `CCN(c1cc(C(=O)NCc2c(C)cc(C)[nH]c2=O)c(C)c2c1cnn2C)C1CCC(N(C)C)CC1` (stereo not drawn) [D2], the IC50 at PRC2 (EZH2-Y641F) was 4.82 µM; with Pfeiffer cells it was over 3 µM.
`CCN(c1cc(C(=O)NCc2c(C)cc(C)[nH]c2=O)c(C)c2c1cnn2C)C1CCC(N2CC(OC)C2)CC1` (stereo not drawn) [D3]: the values for the IC50 at PRC2 (EZH2-Y641F) and in the experiment with Pfeiffer cells were over 10 µM and over 3 µM, respectively.
On to `CCN(c1cc(C(=O)NCc2c(C)cc(C)[nH]c2=O)c(C)c2c1cnn2C)C1CCN(CC(F)(F)F)CC1` [D4], for which the values for the IC50 against PRC2 (EZH2-Y641F) and in the experiment on Pfeiffer cells were over 10 µM and over 3 µM, respectively.
